Results from ChEMBL document CHEMBL1158846, “Three new bistetrahydrofuran acetogenins from the seeds of Annona spinescens” (J Nat Prod, 1998).
Values after ≈ are worked out from the molar mass of the structure shown.

Assays:
[1] = Cytotoxicity against african green monkey Vero cells; assay type: cell-based; conditions: chlorocebus sabaeus, read-out: ED50 (the source's name)
[2] = test system: KB; assay: Cytotoxicity against human KB cells; assay type: functional

Row | Compound | CC50 [1] | ED50 [2]
1 | CCCCCCC(O)CCC[C@H](O)[C@@H]1CC[C@@H]([C@@H]2CC[C@H]([C@H](O)CCCCCCCCCCCCC3=C[C@H](C)OC3=O)O2)O1 (stereo not given in full) [CAROLIN A] | 2 ng/mL (≈ 3.21 nM) | 1 ×10⁻⁷ ug/ml
2 | CCCCCC(O)CCCC[C@H](O)[C@@H]1CC[C@@H]([C@@H]2CC[C@H]([C@H](O)CCCCCCCCCCCCC3=C[C@H](C)OC3=O)O2)O1 (stereo not given in full) [CAROLIN B] | 3.7 ng/mL (≈ 5.94 nM) | 5 ×10⁻⁶ ug/ml
3 | CCCCCCC(O)CCC[C@H](O)[C@@H]1CC[C@@H]([C@@H]2CC[C@H]([C@H](O)CCCCCCCCCCC3=C[C@H](C)OC3=O)O2)O1 (stereo not given in full) [CAROLIN C] | 50 ng/mL (≈ 84.1 nM) | 2 ×10⁻⁴ ug/ml
4 | CCCCCC(O)C(O)CCC[C@H](O)[C@H]1CC[C@@H]([C@@H]2CC[C@@H]([C@@H](O)CCCCCCCCCCCCC3=C[C@H](C)OC3=O)O2)O1 (stereo not given in full) [SPINENCIN] | 6 ng/mL (≈ 9.39 nM) | 1 ×10⁻⁵ ug/ml
5 | CCCCCC[C@H](O)CCC[C@H](O)[C@H]1CC[C@H]([C@H]2CC[C@H]([C@H](O)CCCCCCCCCCCCC3=C[C@H](C)OC3=O)O2)O1 [SQUAMOCIN] | 10 ng/mL (≈ 16.1 nM) | 4 ×10⁻⁴ ug/ml
